Results published in patent US12466839B2, “Allosteric AKT inhibitors for use in the treatment of Hereditary Hemorrhagic Telangiectasia” (VADERIS THERAPEUTICS AG, priority 2020, dated 2025).
pIC50: −log10 of the molar value.

How the values were obtained:
CCR1 = biological target: T1, CCR1 (Homo sapiens, UniProt P32246); test: Millipore Drug Discovery Safety and Liability Panel; format: cell-based
T1 construct: purchased Millipore

ADRB1 = biological target: T2, ADRB1 (Homo sapiens, UniProt P08588); test: as above; format: cell-based
T2 construct: purchased Millipore

CGRP1 = biological target: T3, CGRP1 (Homo sapiens, UniProt O60894+Q16602); test: as above; format: cell-based
T3 construct: purchased Millipore

Cav1.2 = Cav1.2 (Homo sapiens, UniProt Q13936); test: Cardiac ion channel profile; format: cell-based
full length AKT2 = full length AKT2 (Homo sapiens, UniProt P31751); test: Biochemical kinase assay
M3 = biological target: T4, M3 (Homo sapiens, UniProt P20309); test: Millipore Drug Discovery Safety and Liability Panel; format: cell-based
T4 construct: purchased Millipore

D5 = biological target: T5, D5 (Homo sapiens, UniProt P21918); test: as above; format: cell-based
T5 construct: purchased Millipore

CXCR1 = biological target: T6, CXCR1 (Homo sapiens, UniProt P25024); test: as above; format: cell-based
T6 construct: purchased Millipore

NK1 = biological target: T7, NK1 (Homo sapiens, UniProt P25103); test: as above; format: cell-based
T7 construct: purchased Millipore

HCN4 = HCN4 (Homo sapiens, UniProt Q9Y3Q4); test: Cardiac ion channel profile; format: cell-based
CCR2B = biological target: T8, CCR2B (Homo sapiens, UniProt P41597); test: Millipore Drug Discovery Safety and Liability Panel; format: cell-based
T8 construct: purchased Millipore

A2A = biological target: T9, A2A (Homo sapiens, UniProt P29274); test: as above; format: cell-based
T9 construct: purchased Millipore

P2Y1 = biological target: T10, P2Y1 (Homo sapiens, UniProt P47900); test: as above; format: cell-based
T10 construct: Millipore

ADRA1A = biological target: T11, ADRA1A (Homo sapiens, UniProt P35348); test: as above; format: cell-based
T11 construct: purchased Millipore

KCNQ1 = KCNQ1 (Homo sapiens, UniProt P51787); test: Cardiac ion channel profile; format: cell-based
CB2 = biological target: T12, CB2 (Homo sapiens, UniProt P34972); test: Millipore Drug Discovery Safety and Liability Panel; format: cell-based
T12 construct: purchased Millipore

CX3CR1 = biological target: T13, CX3CR1 (Homo sapiens, UniProt P49238); test: as above; format: cell-based
T13 construct: purchased Millipore

ETB = biological target: T14, ETB (Homo sapiens, UniProt P24530); test: as above; format: cell-based
T14 construct: purchased Millipore

tumor xenograft = test: Tumor xenograft model; format: in vivo
ADRA1D (DELTA2-79) = biological target: T15, ADRA1D (DELTA2-79) (Homo sapiens, UniProt P25100); test: Millipore Drug Discovery Safety and Liability Panel; format: cell-based
T15 construct: purchased Millipore

BLT1 = biological target: T16, BLT1 (Homo sapiens, UniProt Q15722); test: as above; format: cell-based
T16 construct: purchased Millipore

H3 = biological target: T17, H3 (Homo sapiens, UniProt Q9Y5N1); test: as above; format: cell-based
T17 construct: purchased Millipore

p38α = p38α (Homo sapiens, UniProt Q16539); test: Panel of 450 kinases and 10-point titration curve; format: biochemical
FP = biological target: T18, FP (Homo sapiens, UniProt P43088); test: Millipore Drug Discovery Safety and Liability Panel; format: cell-based
T18 construct: purchased Millipore

[1] = read-out: ANTAGONIST mean % inhibition

T5 sequence (P21918 whole entry): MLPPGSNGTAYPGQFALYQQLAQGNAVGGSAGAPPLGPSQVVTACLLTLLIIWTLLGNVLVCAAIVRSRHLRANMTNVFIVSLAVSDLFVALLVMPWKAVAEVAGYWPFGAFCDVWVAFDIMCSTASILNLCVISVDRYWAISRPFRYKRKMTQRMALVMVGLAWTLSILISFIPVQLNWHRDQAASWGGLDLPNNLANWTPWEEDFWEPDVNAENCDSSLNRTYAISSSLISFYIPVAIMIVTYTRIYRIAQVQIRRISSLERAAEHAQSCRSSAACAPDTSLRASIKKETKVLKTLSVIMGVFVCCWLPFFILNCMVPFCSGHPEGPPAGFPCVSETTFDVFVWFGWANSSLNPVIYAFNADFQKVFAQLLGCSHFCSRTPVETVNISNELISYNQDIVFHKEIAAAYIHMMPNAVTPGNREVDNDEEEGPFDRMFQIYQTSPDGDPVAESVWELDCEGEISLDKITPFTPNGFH
T17 sequence (Q9Y5N1 whole entry): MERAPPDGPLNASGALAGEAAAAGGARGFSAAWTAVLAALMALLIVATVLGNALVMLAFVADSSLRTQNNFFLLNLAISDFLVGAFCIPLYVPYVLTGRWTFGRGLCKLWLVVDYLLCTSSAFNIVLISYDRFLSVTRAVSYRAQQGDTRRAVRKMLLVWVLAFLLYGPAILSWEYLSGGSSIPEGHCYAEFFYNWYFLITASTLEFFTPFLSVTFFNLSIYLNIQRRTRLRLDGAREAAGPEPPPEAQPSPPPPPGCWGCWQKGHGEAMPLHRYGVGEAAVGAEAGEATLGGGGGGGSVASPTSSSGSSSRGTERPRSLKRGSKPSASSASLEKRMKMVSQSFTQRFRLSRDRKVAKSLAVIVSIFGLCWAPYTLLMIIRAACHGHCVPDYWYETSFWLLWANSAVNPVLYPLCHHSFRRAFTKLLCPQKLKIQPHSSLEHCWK
T10 sequence (P47900 whole entry, species assumed): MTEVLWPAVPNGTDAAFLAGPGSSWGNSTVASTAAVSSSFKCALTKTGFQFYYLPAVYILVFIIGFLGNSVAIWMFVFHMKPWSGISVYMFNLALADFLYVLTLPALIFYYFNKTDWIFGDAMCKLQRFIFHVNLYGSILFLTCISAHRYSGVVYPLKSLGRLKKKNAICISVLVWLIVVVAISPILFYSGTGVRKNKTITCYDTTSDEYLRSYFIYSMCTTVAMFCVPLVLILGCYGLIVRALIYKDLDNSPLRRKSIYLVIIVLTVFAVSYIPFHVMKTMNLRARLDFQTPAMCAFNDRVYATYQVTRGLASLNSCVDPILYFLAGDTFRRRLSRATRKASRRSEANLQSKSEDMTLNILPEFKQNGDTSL
T1 sequence (P32246 whole entry): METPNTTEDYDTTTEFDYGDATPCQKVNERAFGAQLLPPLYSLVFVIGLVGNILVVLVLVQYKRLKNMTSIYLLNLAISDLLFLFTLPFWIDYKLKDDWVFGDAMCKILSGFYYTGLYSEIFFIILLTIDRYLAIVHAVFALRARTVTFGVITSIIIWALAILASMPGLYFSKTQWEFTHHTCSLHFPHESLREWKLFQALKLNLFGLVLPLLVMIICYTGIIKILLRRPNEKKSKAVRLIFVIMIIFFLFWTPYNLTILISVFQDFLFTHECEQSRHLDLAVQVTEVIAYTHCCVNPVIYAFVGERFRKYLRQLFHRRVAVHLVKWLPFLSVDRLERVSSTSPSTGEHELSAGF
T11 sequence (P35348 whole entry): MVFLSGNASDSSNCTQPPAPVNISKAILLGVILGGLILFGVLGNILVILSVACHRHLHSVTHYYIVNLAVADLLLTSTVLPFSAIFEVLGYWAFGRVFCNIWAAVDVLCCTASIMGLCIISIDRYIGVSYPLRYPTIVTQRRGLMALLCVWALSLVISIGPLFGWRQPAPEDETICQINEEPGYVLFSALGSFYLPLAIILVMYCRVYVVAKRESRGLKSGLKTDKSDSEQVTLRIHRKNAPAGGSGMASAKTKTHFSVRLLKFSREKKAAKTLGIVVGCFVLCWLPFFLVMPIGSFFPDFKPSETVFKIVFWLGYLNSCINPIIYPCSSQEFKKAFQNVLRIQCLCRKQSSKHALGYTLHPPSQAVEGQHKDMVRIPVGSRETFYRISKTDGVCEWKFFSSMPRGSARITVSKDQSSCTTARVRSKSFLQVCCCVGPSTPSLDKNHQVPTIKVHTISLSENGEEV
T14 sequence (P24530 27-442, species assumed): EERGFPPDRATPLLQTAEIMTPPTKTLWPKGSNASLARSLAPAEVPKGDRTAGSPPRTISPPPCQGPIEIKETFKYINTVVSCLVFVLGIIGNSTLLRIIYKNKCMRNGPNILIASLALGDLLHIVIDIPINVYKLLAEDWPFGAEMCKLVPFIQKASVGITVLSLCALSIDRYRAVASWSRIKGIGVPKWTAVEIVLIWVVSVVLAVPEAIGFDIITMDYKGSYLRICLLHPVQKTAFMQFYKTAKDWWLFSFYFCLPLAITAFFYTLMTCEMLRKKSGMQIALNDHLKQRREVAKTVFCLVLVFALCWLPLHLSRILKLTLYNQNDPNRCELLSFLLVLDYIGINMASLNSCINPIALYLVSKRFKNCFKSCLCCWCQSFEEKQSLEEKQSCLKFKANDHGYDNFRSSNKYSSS
T8 sequence (P41597 1-360 isoform P41597-2): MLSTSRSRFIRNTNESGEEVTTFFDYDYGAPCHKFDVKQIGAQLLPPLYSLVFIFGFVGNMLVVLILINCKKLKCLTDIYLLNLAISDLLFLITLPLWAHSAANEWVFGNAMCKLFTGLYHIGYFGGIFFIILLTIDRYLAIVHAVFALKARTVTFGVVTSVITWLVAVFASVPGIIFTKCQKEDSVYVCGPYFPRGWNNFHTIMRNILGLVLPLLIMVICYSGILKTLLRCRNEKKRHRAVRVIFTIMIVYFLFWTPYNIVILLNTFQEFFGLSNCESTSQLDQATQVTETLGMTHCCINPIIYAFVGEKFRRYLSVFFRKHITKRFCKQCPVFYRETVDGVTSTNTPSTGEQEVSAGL
T12 sequence (P34972 whole entry): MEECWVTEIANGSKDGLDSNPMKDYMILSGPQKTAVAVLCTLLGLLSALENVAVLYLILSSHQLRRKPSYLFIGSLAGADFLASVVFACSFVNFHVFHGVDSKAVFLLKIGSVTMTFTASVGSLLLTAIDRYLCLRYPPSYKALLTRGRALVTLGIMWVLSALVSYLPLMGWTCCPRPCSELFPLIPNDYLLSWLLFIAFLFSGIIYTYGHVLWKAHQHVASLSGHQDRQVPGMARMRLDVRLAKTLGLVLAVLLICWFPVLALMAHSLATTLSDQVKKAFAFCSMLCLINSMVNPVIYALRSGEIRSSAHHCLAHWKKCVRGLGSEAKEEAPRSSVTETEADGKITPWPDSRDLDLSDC
T7 sequence (P25103 whole entry): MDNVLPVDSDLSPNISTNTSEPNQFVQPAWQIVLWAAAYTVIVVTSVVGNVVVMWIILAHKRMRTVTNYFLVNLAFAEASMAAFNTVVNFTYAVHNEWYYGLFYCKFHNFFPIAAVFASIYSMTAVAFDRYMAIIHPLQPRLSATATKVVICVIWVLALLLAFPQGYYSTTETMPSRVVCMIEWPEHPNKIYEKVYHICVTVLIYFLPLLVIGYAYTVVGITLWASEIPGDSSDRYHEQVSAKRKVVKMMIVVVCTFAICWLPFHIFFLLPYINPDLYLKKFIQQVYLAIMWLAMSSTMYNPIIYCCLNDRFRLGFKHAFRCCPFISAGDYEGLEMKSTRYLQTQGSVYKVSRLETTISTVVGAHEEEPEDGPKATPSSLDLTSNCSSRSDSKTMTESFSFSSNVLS
T4 sequence (P20309 whole entry): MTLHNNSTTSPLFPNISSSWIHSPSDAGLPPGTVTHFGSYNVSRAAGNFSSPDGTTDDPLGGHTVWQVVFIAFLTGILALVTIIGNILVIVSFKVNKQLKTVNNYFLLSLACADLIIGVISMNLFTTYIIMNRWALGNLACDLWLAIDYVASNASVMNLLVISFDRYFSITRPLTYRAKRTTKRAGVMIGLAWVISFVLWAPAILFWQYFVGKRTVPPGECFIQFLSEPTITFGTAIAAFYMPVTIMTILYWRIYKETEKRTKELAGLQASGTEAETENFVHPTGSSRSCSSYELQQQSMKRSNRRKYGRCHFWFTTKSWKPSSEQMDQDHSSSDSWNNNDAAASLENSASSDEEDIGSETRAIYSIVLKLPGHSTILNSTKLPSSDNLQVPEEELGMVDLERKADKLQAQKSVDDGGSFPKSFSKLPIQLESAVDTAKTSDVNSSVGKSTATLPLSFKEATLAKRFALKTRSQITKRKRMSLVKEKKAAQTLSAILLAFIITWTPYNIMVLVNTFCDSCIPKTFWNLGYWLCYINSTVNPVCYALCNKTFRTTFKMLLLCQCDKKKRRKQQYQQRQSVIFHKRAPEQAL
T9 sequence (P29274 whole entry): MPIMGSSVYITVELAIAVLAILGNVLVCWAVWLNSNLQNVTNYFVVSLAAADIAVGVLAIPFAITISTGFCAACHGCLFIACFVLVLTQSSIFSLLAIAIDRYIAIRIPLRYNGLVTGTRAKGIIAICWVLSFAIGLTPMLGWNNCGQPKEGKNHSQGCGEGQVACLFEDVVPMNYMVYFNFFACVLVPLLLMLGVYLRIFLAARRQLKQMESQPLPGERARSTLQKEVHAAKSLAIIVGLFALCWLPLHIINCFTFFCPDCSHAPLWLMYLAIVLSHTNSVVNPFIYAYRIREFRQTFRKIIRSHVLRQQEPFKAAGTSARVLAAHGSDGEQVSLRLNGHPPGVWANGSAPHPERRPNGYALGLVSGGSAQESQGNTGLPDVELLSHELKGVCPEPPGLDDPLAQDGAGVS

## CCN1C(=O)COc2nc(-c3ccc(C4(N)CC(O)C4)cc3)c(-c3ccccc3)cc21.O=C(O)C(O)C(O)C(=O)O [VAD044, 6-(4-(1-amino-3-hydroxycyclobutyl)phenyl)-1-ethyl-7-phenyl-1H-pyrido[2,3-b][1,4]oxazin-2(3H)-one L-tartrate]
CCR1; CCR1, 10 μM, read-out: AGONIST mean % increase in activity
  activation at 10 µM: 0.2%
CCR1; [1]
  inhibition at 10 µM: 9.5%
ADRB1; ADRB1, 10 μM, read-out: AGONIST mean % increase in activity
  activation at 10 µM: -0.1%
ADRB1; [1]
  inhibition at 10 µM: 4.2%
CGRP1; CGRP1, 10 μM, read-out: AGONIST mean % increase in activity
  activation at 10 µM: -0.1%
CGRP1; [1]
  inhibition at 10 µM: -7.9%
Cav1.2
  inhibition at 10 µM: < 25%
Full length AKT2
  pIC50: 7.02
M3; M3, 10 μM, read-out: AGONIST mean % increase in activity
  activation at 10 µM: -0.5%
M3; [1]
  inhibition at 10 µM: 5.3%
D5; read-out: AGONIST mean % increase in activity
  activation at 10 µM: -0.8%
D5; [1]
  inhibition at 10 µM: 35.4%
CXCR1; CXCR1, 10 μM, read-out: AGONIST mean % increase in activity
  activation at 10 µM: -0.3%
CXCR1; [1]
  inhibition at 10 µM: 3.7%
NK1; NK1, 10 μM, read-out: AGONIST mean % increase in activity
  activation at 10 µM: -1.4%
NK1; [1]
  inhibition at 10 µM: 2.4%
HCN4
  inhibition at 10 µM: < 25%
CCR2B; CCR2B, 10 μM, read-out: AGONIST mean % increase in activity
  activation at 10 µM: -0.1%
CCR2B; [1]
  inhibition at 10 µM: 9.1%
A2A; A2A, 10 μM
  AGONIST mean % increase in activity: 2.3%
A2A; [1]
  inhibition at 10 µM: 12.5%
P2Y1; 10 μM
  AGONIST mean % increase in activity: 1%
P2Y1; [1]
  inhibition at 10 µM: 50.6%
ADRA1A; ADRA1A, 10 μM, read-out: AGONIST mean % increase in activity
  activation at 10 µM: -0.7%
ADRA1A; [1]
  inhibition at 10 µM: 9.9%
KCNQ1
  inhibition at 10 µM: < 25%
CB2; CB2, 10 μM, read-out: AGONIST mean % increase in activity
  activation at 10 µM: -0.9%
CB2; [1]
  inhibition at 10 µM: 10.6%
CX3CR1; CX3CR1, 10 μM
  AGONIST mean % increase in activity: 0%
CX3CR1; [1]
  inhibition at 10 µM: 0.6%
ETB; ETB, 10 μM, read-out: AGONIST mean % increase in activity
  activation at 10 µM: -1.1%
ETB; [1]
  inhibition at 10 µM: 2.9%
Tumor xenograft
  minimal effective dose in vivo: 30 mg/kg
ADRA1D (DELTA2-79); ADRA1D (DELTA2-79), 10 μM, read-out: AGONIST mean % increase in activity
  activation at 10 µM: -0.1%
ADRA1D (DELTA2-79); [1]
  inhibition at 10 µM: 7%
BLT1; BLT1, 10 μM, read-out: AGONIST mean % increase in activity
  activation at 10 µM: -0.2%
BLT1; [1]
  inhibition at 10 µM: 5.6%
H3; H3, 10 μM, read-out: AGONIST mean % increase in activity
  activation at 10 µM: -0.6%
H3; [1]
  inhibition at 10 µM: 3.5%
p38α; 10 μM
  inhibition at 10 µM: 84%
p38α; 10-point titration curve
  pIC50: < 5.00
FP; FP, 10 μM, read-out: AGONIST mean % increase in activity
  activation at 10 µM: -0.7%
FP; [1]
  inhibition at 10 µM: 13.6%
